Test results as given in PMC7354229 (ACS infectious diseases, 2020).
Where two headings read alike, the source gives them in different places.

Tests used:
Format in all cases: cell-based, Staphylococcus aureus
[1] = tested on: S. aureus JE2 transposon mutants; conditions: peptide at 1.56 μM, propidium iodide
[2] = tested on: S. aureus; test: Growth inhibition in 100% TSB
[3] = tested on: S. aureus JE2 transposon mutant SAUSA300_1503
[4] = tested on: S. aureus JE2 transposon mutant SAUSA300_1465; test: MIC ratio WT/mutant
[5] = tested on: S. aureus JE2 transposon mutant SAUSA300_1962; test: MIC ratio WT/mutant
[6] = tested on: S. aureus JE2 transposon mutant SAUSA300_0647 (vraF); test: MIC ratio WT/mutant
[7] = tested on: S. aureus JE2 transposon mutant SAUSA300_1037 (pheS); test: MIC ratio WT/mutant
[8] = tested on: S. aureus JE2 transposon mutant SAUSA300_1336
[9] = tested on: S. aureus JE2 transposon mutant SAUSA300_0829 (lipA); test: MIC ratio WT/mutant
[10] = tested on: S. aureus JE2 transposon mutant SAUSA300_0186 (argC)
[11] = tested on: S. aureus JE2 transposon mutant SAUSA300_0646 (graS); test: MIC ratio WT/mutant
[12] = tested on: S. aureus JE2 transposon mutant SAUSA300_1867; test: MIC ratio WT/mutant
[13] = tested on: S. aureus JE2 transposon mutant SAUSA300_1036
[14] = tested on: S. aureus JE2 transposon mutant SAUSA300_1898
[15] = tested on: S. aureus JE2 transposon mutant SAUSA300_1255 (mprF); test: MIC ratio WT/mutant
[16] = tested on: S. aureus JE2 transposon mutant SAUSA300_1967
[17] = tested on: S. aureus JE2 transposon mutant SAUSA300_0988 (trkA); test: MIC ratio WT/mutant

SMILES	Membrane permeability of mutant relative to JE2 ([1]; mutant SAUSA300_0646)	Membrane permeability of mutant relative to JE2 ([1]; mutants SAUSA300_0186, 0829, 1089, 1097, 1220, 1228, 1515, 1865, 1867, 1962 and 1967)	Membrane permeability of mutant relative to JE2 ([1]; mutants SAUSA300_0645, 0647 and 1503)	Membrane permeability of mutant relative to JE2 ([1]; mutants SAUSA300_1036, 1037 and 1255)	Inhibition of S. aureus growth [2]	Fold decrease of MIC (MIC ratio WT / mutant) [3] [fold]	Fold decrease of MIC (MIC ratio WT / mutant) [4] [fold]	Fold decrease of MIC (MIC ratio WT / mutant) [5]	Fold decrease of MIC (MIC ratio WT / mutant) [6]	Fold decrease of MIC (MIC ratio WT / mutant) [7]	Fold decrease of MIC (MIC ratio WT / mutant) [8] [fold]	Fold decrease of MIC (MIC ratio WT / mutant) [9] [fold]	Fold decrease of MIC (MIC ratio WT / mutant) [10] [fold]	Fold decrease of MIC (MIC ratio WT / mutant) [11]	Fold decrease of MIC (MIC ratio WT / mutant) [12] [fold]	Fold decrease of MIC (MIC ratio WT / mutant) [13] [fold]	Fold decrease of MIC (MIC ratio WT / mutant) [14] [fold]	Fold decrease of MIC (MIC ratio WT / mutant) [15] [fold]	Fold decrease of MIC (MIC ratio WT / mutant) [16] [fold]	Fold decrease of MIC (MIC ratio WT / mutant) [17] [fold]
CC[C@H](C)[C@H](NC(=O)[C@H](CCCCN)NC(=O)[C@H](CCC(=O)O)NC(=O)[C@H](CCCCN)NC(=O)[C@H](CO)NC(=O)[C@H](CCCCN)NC(=O)[C@H](CCCNC(=N)N)NC(=O)[C@H](Cc1ccccc1)NC(=O)[C@H](Cc1ccccc1)NC(=O)[C@H](CC(=O)O)NC(=O)CNC(=O)[C@H](CC(C)C)NC(=O)[C@@H](N)CC(C)C)C(=O)NCC(=O)N[C@@H](CCCCN)C(=O)N[C@@H](CCC(=O)O)C(=O)N[C@@H](Cc1ccccc1)C(=O)N[C@@H](CCCCN)C(=O)N[C@@H](CCCNC(=N)N)C(=O)N[C@H](C(=O)N[C@H](C(=O)N[C@@H](CCC(N)=O)C(=O)N[C@@H](CCCNC(=N)N)C(=O)N[C@H](C(=O)N[C@@H](CCCCN)C(=O)N[C@@H](CC(=O)O)C(=O)N[C@@H](Cc1ccccc1)C(=O)N[C@@H](CC(C)C)C(=O)N[C@@H](CCCNC(=N)N)C(=O)N[C@@H](CC(N)=O)C(=O)N[C@@H](CC(C)C)C(=O)N[C@H](C(=O)N1CCC[C@H]1C(=O)N[C@@H](CCCNC(=N)N)C(=O)N[C@H](C(=O)N[C@@H](CCC(=O)O)C(=O)N[C@@H](CO)C(=O)O)[C@@H](C)O)C(C)C)[C@@H](C)CC)C(C)C)[C@@H](C)CC [LL-37]	less permeable	essentially no differences	slightly more permeable	clearly more permeable than JE2	did not inhibit	–	–	–	–	–	–	–	–	–	–	–	–	–	–	–
CC(=O)NC[C@H]1CN(c2ccc(N3CCOCC3)c(F)c2)C(=O)O1 [Linez, linezolid]	–	–	–	–	–	2	6	2–4 fold	6 fold	2 fold	–	–	–	–	–	–	–	–	–	–
CN(C)c1cc(NC(=O)CNC(C)(C)C)c(O)c2c1C[C@H]1C[C@H]3[C@H](N(C)C)C(O)=C(C(N)=O)C(=O)[C@@]3(O)C(O)=C1C2=O [Tige, tigecycline]	–	–	–	–	–	2	6	4 fold	2 fold	2–4 fold	2	2	2	2 fold	2	2	2	2	2	2
NC[C@H]1O[C@H](O[C@H]2[C@H](O)[C@@H](O[C@H]3O[C@H](CO)[C@@H](O)[C@H](N)[C@H]3O)[C@H](N)C[C@@H]2N)[C@H](N)C[C@@H]1O [Tobra, tobramycin]	–	–	–	–	–	–	4	2 fold	2 fold	4 fold	–	–	–	–	–	–	–	4	–	–
CN[C@H](CC(C)C)C(=O)N[C@H]1C(=O)N[C@@H](CC(N)=O)C(=O)N[C@H]2C(=O)N[C@H]3C(=O)N[C@H](C(=O)N[C@H](C(=O)O)c4cc(O)cc(O)c4-c4cc3ccc4O)[C@H](O)c3ccc(c(Cl)c3)Oc3cc2cc(c3O[C@@H]2O[C@H](CO)[C@@H](O)[C@H](O)[C@H]2O[C@H]2C[C@](C)(N)[C@H](O)[C@H](C)O2)Oc2ccc(cc2Cl)[C@H]1O [Van, vancomycin]	–	–	–	–	–	–	4	2 fold	2–4 fold	4 fold	–	–	–	2–4 fold	2	–	–	2	–	–
